This is an account of results in US4405609A, “Combination and method for increasing feed utilization efficiency in ruminants” (Eli Lilly and Company, priority 1982, dated 1983).

The subject of assay [1] is Hereford crossbred steers. Kind of assay: 140-day narasin/actaplanin feed study. Type of assay: in vivo. The text has this:
Another study was designed to show the unexpected interaction of the polyether narasin in combination with actaplanin. Two hundred forty Hereford crossbred steers averaging about 700 pounds and about 18 months of age were employed. The animals were fed corn silage and high moisture corn, plus two pounds per head per day of the following cattle supplement:
The treatments comprised three dose levels of narasin (0, 4 and 12 g./T.) and four dose levels of actaplanin (0, 10, 20 and 40 g./T.). The animals were randomly assigned to four blocks of twelve partially sheltered pens, each with five animals per pen. The treatments were allotted at random within the four 12-pen blocks such that each treatment was represented in each block. Each of the twelve treatments was replicated four times.

A further assay relates to rumen fluid. Kind of assay: in vitro rumen fluid fermentor assay of propionate production. Format: cell-based, steers. The settings on record: Actaplanin 0 PPM, ± SD. The text has this:
Rumen fluid was obtained from steers which had surgically-installed fistula openings into the rumen. The steers were maintained on a high-grain ration such as the one described above.
A sample of rumen fluid was strained through four layers of cheese cloth and the eluate was collected in vacuum bottles. The particulate matter retained by the cheese cloth was resuspended in enough physiological buffer to return it to the original volume of the rumen fluid, and the eluate was strained again. The buffer utilized is described by Cheng et al., J. Dairy Sci., 38, 1225 (1955).
The two eluates were combined in a separatory funnel and allowed to stand until any remaining particulate matter separated to the top. The clear liquid layer then was removed, diluted with an equal volume of the above-mentioned buffer, and the pH of the solution was adjusted to 7.0.
Fermenter flasks were then changed with the rumen liquor thus prepared. Two fermentor flasks were used per each treatment group. The fermentor flasks were allowed to stand for four days for equilibration, and then measurements of proprionate production were made daily for six days in order to establish a control. Measurements were made by gas chromatographic methods. The fermenter flasks were then fed 20 grams per day of a finely ground ration composed of 20 percent high concentrate ration and 80 percent alfalfa hay. The individual feed efficiency enhancers, and the composition of such enhancers provided by this invention, were added to the feed and dried thereon prior to introduction of the feed ration into the fermentor flasks. The feed ration was introduced into the flasks approximately two times each day. After the initial administration of active ingredient, two days were allowed for reequilibration, and then the volatile fatty acid (VFA) production in each flask was monitored by gas chromatography for five days.

The test system of assay [2] is Hereford crossbred steers. Kind of assay: 140-day monensin/actaplanin feed study, corn silage diet. Type of assay: in vivo. The method, then: The animals were divided into a control group and into eleven test groups. All animals were fed a corn silage diet ad libitum once daily throughout the 140-day study, plus two pounds per head per day of the following cattle supplement:
Test compounds were formulated as a premix with 50 percent by weight of ground corn cobs and 48 percent by weight of ground corn. The premixes were added to the corn silage feed rations in amounts necessary to provide the desired doses of active ingredients to the test animals. The data are presented as the average for the entire group of animals receiving a particular dose of active agent.
In the foregoing table, the Feed Efficiency value is calculated by dividing the average amount of feed consumed (pounds of dry matter intake) by the average daily gain in weight (in pounds). Ideally, the animals will gain more weight on less feed intake. Accordingly, the most improvement in feed utilization efficiency is represented by smaller numbers. […] The optimum in this experiment was 10 g./T. of monensin and 40 g./T. of actaplanin which produced a 13.5% improvement in feed efficiency over untreated controls.

Another assay relates to steers. Kind of assay: further analysis of feed efficiency data: expected versus observed change. Format: in vivo. The settings on record: for Feed efficiency (feed to gain ratio): actaplanin 0. The text has this: When the components are utilized in amounts that are about their respective optimal dose levels when used alone, the combination causes an unexpected increase in feed utilization efficiency, which is believed the result of continued unexpected interaction. The results of this further analysis of data is presented below:
In the foregoing table, Δ is the change in feed efficiency of the treated group over the nontreated group. […] The change in efficiency is thus 0.14. The term "EΔ" is the change in efficiency expected with a combination, and is arrived at by adding the Δ values of the individual components at the appropriate dose levels. The term "OΔ" is the change in efficiency over nontreated controls actually observed with animals receiving the combination.

In the next assay the test system is feeder calves. As to the kind of experiment: in vivo evaluation of monensin and actaplanin in feeder calves on high-grain ration. The settings on record: 30 grams per ton of each agent in feed. The text has this:
For example, in a typical in vivo evaluation of the combination of monensin and actaplanin, feeder calves were fed a high-grain ration such as that recited above. Fifteen control animals received the feed ration with no feed efficiency enhancer additive. Another group of fifteen calves received the feed ration containing monensin at 30 grams per ton, while a third group of fifteen animals received the feed ration with actaplanin at 30 grams per ton. A combination of 30 grams per ton of monensin and 30 grams per ton of actaplanin was administered as a feed additive to the ration consumed by a fourth group of fifteen test animals. […] The feed efficiency of such control group, calculated as the pounds of feed consumption required for one pound of animal weight gain, was 13.49.

Assay [3] concerns Hereford crossbred steers. Kind of assay: 154-day trial of monensin (30 g./T.) with actaplanin. Format: in vivo. The text has this:
In another study, two hundred Hereford crossbred steers averaging about 565 pounds were employed in a 154-day trial to determine the efficacy of combinations of monensin (at 30 g./T.) and actaplanin (at 20 g./T., 40 g./T. and 60 g./T.). The steers were fed a corn silage or corn-soya-cob roughage diet ad libitum once a day, together with a cattle supplement. The animals were divided into five treatment groups of forty steers each. These treatment groups were maintained in open pens; five animals per pen so that each treatment group comprised eight pens. Individual treatments were then assigned at random to each of the eight pens so that each treatment was replicated […] within each ration group.

The test system of a further assay is ruminants. The settings on record: Raun et al., J. Ani. Sci. 43, 670 (1976); cited from earlier work.
[4] abbreviates: monensin 10, actaplanin 0 grams/Ton.
Setting [5] is: monensin 30, actaplanin 0 grams/Ton.

For `CC[C@@H](C(=O)O)[C@@H]1O[C@@H]([C@@H](C)[C@H](O)[C@H](C)C(=O)[C@H](CC)[C@H]2O[C@]3(C=C[C@@H](O)[C@]4(CC[C@@](C)([C@H]5CC[C@](O)(CC)[C@H](C)O5)O4)O3)[C@H](C)C[C@@H]2C)[C@@H](C)C[C@@H]1C` [narasin], in assay [1] (narasin 4, actaplanin 0 g./T.), the “Average Daily Dry Matter Intake” value is given as 16.41 Pounds, the “Average Daily Weight Gain” value is on record as 2.53 Pounds and the “Average Feed Efficiency” value is listed as 6.46. Also, in assay [1] (narasin 12, actaplanin 0 g./T.), the “Average Daily Dry Matter Intake” value came to 15.52 Pounds, the “Average Daily Weight Gain” value amounted to 2.52 Pounds and the “Average Feed Efficiency” value turned out to be 6.18. Also, the “decrease in feed intake versus untreated controls” value in assay [1] (narasin alone at 12 g./T.) was 7.2%.

In the case of monensin, the “Propionate Production” value with rumen fluid (Monensin 0.5 PPM) was 14.2 ± 1.7 mM/24 hours. Further, in the assay with rumen fluid (Monensin 3 PPM), the “Propionate Production” value is listed as 18.4 ± 3.2 mM/24 hours. For the same compound, in assay [2] (setting [4]), the “Average Daily Dry Matter Intake” value was 13.54 lbs, the “Average Daily Dry Matter Intake % change from control” value is reported as “+9.6%”, the “Average Daily Weight Gain” value came out at 2.45 lbs and the “Average Daily Weight Gain % change over control” value was “+9.9%”. Moreover, in assay [2] (setting [4]), the “Feed Efficiency” value was found to be 5.52 and the “Feed Efficiency % change from control” value was -0.3%. For the same compound, in assay [2] (setting [5]), the “Average Daily Dry Matter Intake” value is 12.94 lbs, the “Average Daily Dry Matter Intake % change from control” value is “+4.8%”, the “Average Daily Weight Gain” value was 2.39 lbs and the “Average Daily Weight Gain % change over control” value was “+7.2%”. In assay [2] (setting [5]), the “Feed Efficiency” value worked out at 5.42 and the “Feed Efficiency % change from control” value is recorded as -2.2%. Also, in the assay on steers (monensin 10 g./T. alone), the “Δ, change in feed efficiency of the treated group over the nontreated group” value was 0.14. The “Feed efficiency (feed to gain ratio)” value in the assay on steers (monensin 10 g./T.) came to 5.95. Also, the “Δ, change in feed efficiency of the treated group over the nontreated group” value in the assay with steers (monensin 30 g./T. alone) worked out at 0.39. The “Feed efficiency (feed to gain ratio)” value in the assay on steers (monensin 30 g./T.) is given as 5.70. Also, in the assay with feeder calves, the “Average Daily Weight Gain” value worked out at 1.42 pounds and the “feed efficiency (pounds of feed consumption required for one pound of animal weight gain)” value was determined as 12.05. In assay [3] (setting [5]), the “Average Daily Dry Matter Intake” value is reported as 16.79 lbs, the “Average Daily Weight Gain” value is 2.41 lbs and the “Feed Efficiency” value was found to be 7.01. The “increase in feed efficiency versus control” value in assay [3] (monensin alone (30 g./T.)) was found to be 6.4%. For the same compound, in the assay on ruminants, the “dosage level of maximal improvement in feed efficiency” value was “about 33 ppm” and the “dose level of maximal improvement in feed efficiency” value was “about 30 grams per ton of feed”.
